Source: the supplement of paper PMC10307832

What was measured:
Experiment in all cases: relative viability (nuclei count vs DMSO), 5 days (fraction); higher = more cells survive
Silmitasertib + Olaparib = compound: O=C(O)c1ccc2c(c1)nc(Nc1cccc(Cl)c1)c1ccncc12 [Silmitasertib] + O=C(c1cc(Cc2n[nH]c(=O)c3ccccc23)ccc1F)N1CCN(C(=O)C2CC2)CC1 [Olaparib] (partner 8 µM)
How it was run: (§1)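 One day after seeding in 1536-well plates, lung cancer cell lines were dosed by pin tool. Dosing was either single-drug or a fixed anchor-drug dose plus five library-drug doses (not always all listed) in √10 steps. After 5 days, nuclei were stained in one fix-and-stain step and counted on 4× images, and relative viability is the nuclei count of treated wells over that of vehicle wells, given as the median of duplicate plates.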

[1] = compound: O=C(O)c1ccc2c(c1)nc(Nc1cccc(Cl)c1)c1ccncc12 [Silmitasertib] + CCNC(=O)c1noc(-c2cc(C(C)C)c(O)cc2O)c1-c1ccc(CN2CCOCC2)cc1 [Luminespib] (partner 0.01 µM)
How it was run: as §1

[2] = compound: O=C(O)c1ccc2c(c1)nc(Nc1cccc(Cl)c1)c1ccncc12 [Silmitasertib] + CC(=O)c1c(C)c2cnc(Nc3ccc(N4CCNCC4)cn3)nc2n(C2CCCC2)c1=O [Palbociclib] (partner 0.5 µM)
How it was run: as §1

Silmitasertib + AZD7762 = compound: O=C(O)c1ccc2c(c1)nc(Nc1cccc(Cl)c1)c1ccncc12 [Silmitasertib] + NC(=O)Nc1cc(-c2cccc(F)c2)sc1C(=O)N[C@H]1CCCNC1 [AZD7762] (partner 0.2 µM)
How it was run: as §1

[3] = compound: O=C(O)c1ccc2c(c1)nc(Nc1cccc(Cl)c1)c1ccncc12 [Silmitasertib] + C[C@]1(O)C[C@@H](c2nc(-c3ccc4ccc(-c5ccccc5)nc4c3)c3c(N)nccn32)C1 [Linsitinib] (partner 1 µM)
How it was run: as §1

Cell Line	relative viability (Silmitasertib + Olaparib; first compound 0.04 µM)	relative viability (Silmitasertib + Olaparib; first compound 0.4 µM)	relative viability (Silmitasertib + Olaparib; first compound 1.265 µM)	relative viability (Silmitasertib + Olaparib; first compound 4 µM)	relative viability ([1]; first compound 0.04 µM)	relative viability ([1]; first compound 1.265 µM)	relative viability ([1]; first compound 4 µM)	relative viability ([2]; first compound 0.04 µM)	relative viability ([2]; first compound 1.265 µM)	relative viability ([2]; first compound 4 µM)	relative viability (Silmitasertib + AZD7762; first compound 0.04 µM)	relative viability (Silmitasertib + AZD7762; first compound 1.265 µM)	relative viability (Silmitasertib + AZD7762; first compound 4 µM)	relative viability ([3]; first compound 0.04 µM)	relative viability ([3]; first compound 0.4 µM)	relative viability ([3]; first compound 1.265 µM)	relative viability ([3]; first compound 4 µM)	relative viability ([1]; first compound 0.4 µM)	relative viability ([2]; first compound 0.4 µM)	relative viability (Silmitasertib + AZD7762; first compound 0.4 µM)
LK-2	0.798	0.283	0.663	0.346	0.168	0.174	0.169	0.593	0.509	0.397	0.344	0.362	0.219	0.557	0.474	0.365	0.451			
LOU-NH91	0.941	0.839	0.8	0.814	0.355	0.264	0.248	0.519	0.579	0.553	0.785	0.621	0.594	1.11	0.859	0.796	0.754	0.301	0.522	0.745
LU99A	0.277	0.287	0.216	0.204	0.272	0.259	0.201	0.359	0.325	0.404	0.339	0.276	0.283	0.574	0.632	0.396	0.361	0.361	0.397	0.382
LXF-289	0.995		0.935	1.07	0.592	0.652	0.647	0.606	0.657	0.66	1.13	1.29	1.28	0.91		1.08	1.06			
NCI-H23	0.351	0.217	0.272	0.251	0.217	0.215	0.217	0.467	0.423	0.393	0.29	0.344	0.165	0.662		0.448	0.582	0.197	0.444	0.153
NCI-H322M	0.7	0.608	0.456	0.39	0.968	0.693	0.44	0.411	0.422	0.351	0.554	0.562	0.405	0.868	0.809	0.62	0.453	0.893	0.486	0.608
NCI-H358	0.696	0.396	0.483	0.36	0.39	0.22	0.192	0.133	0.134	0.125	0.633	0.595	0.567	0.902	0.799	0.585	0.607		0.128	0.574
NCI-H441	0.604		0.647	0.341	0.369	0.329	0.242	0.254	0.206	0.178	1.34	1.09	1.16	0.455		0.389	0.35			
NCI-H460	0.387	0.269	0.553	0.575	0.0354	0.0278	0.0318	0.203	0.189	0.075	0.608	0.759	0.384	0.779	0.84	0.782	0.899	0.0304	0.25	0.671
NCI-H647	0.625	0.431	0.57	0.325	0.159	0.241	0.133	0.505	0.33	0.282	0.513	0.404	0.19	1.37	1.24	1.05	0.663	0.268	0.376	0.364
NCI-H650	0.4	0.232	0.317	0.294	0.886	0.436	0.457	0.319	0.266	0.259	1.17	0.907	0.982	0.96	0.563	0.757	0.407	0.599	0.236	0.524
NCI-H727	0.709	0.59	0.584	0.681	0.332	0.404	0.358	0.64	0.648	0.681	0.773	0.654	0.543	0.327	0.287	0.303	0.166	0.274	0.529	0.573
NCI-H838	0.849	0.521	0.635	0.491	0.29	0.338	0.217	0.253	0.18	0.199	0.828	1.03	0.951	1.09		0.899	0.608		0.25	0.864
NCI-H1355	0.727		0.698	0.615	0.776	0.69	0.576	0.403	0.358	0.366	0.729	0.776	0.679	0.857		0.768	0.796			
NCI-H1395	0.463	0.461	0.459	0.469	0.635	0.539	0.713	0.631	0.592	0.597	0.425	0.421	0.41	1.14	0.919	1	1.01	0.562	0.617	0.42
NCI-H1437	0.648	0.645	0.521	0.483	1.17	1.03	0.823	0.305	0.221	0.222	1.2	1.02	1.06	1.03		0.691	0.36	1.04	0.26	1.06
NCI-H1651	0.171	0.139	0.184	0.186	0.985	0.916	0.71	0.495	0.534	0.528	0.505	0.481	0.675	0.944	1	0.901	0.942	1.01	0.516	0.449

Cell Line	relative viability (Silmitasertib + Olaparib; first compound 0.04 µM)	relative viability (Silmitasertib + Olaparib; first compound 0.4 µM)	relative viability (Silmitasertib + Olaparib; first compound 1.265 µM)	relative viability (Silmitasertib + Olaparib; first compound 4 µM)	relative viability ([1]; first compound 0.04 µM)	relative viability ([1]; first compound 1.265 µM)	relative viability ([1]; first compound 4 µM)	relative viability ([2]; first compound 0.04 µM)	relative viability ([2]; first compound 1.265 µM)	relative viability ([2]; first compound 4 µM)	relative viability (Silmitasertib + AZD7762; first compound 0.04 µM)	relative viability (Silmitasertib + AZD7762; first compound 1.265 µM)	relative viability (Silmitasertib + AZD7762; first compound 4 µM)	relative viability ([3]; first compound 0.04 µM)	relative viability ([3]; first compound 0.4 µM)	relative viability ([3]; first compound 1.265 µM)	relative viability ([3]; first compound 4 µM)	relative viability ([1]; first compound 0.4 µM)	relative viability ([2]; first compound 0.4 µM)	relative viability (Silmitasertib + AZD7762; first compound 0.4 µM)
NCI-H1666	0.713	0.577	0.566	0.61	1.04	0.708	0.634	0.617	0.578	0.61	0.915	0.763	0.627	0.919	0.571	0.682	0.536	0.955	0.654	0.857
NCI-H1734	0.607	0.373	0.583	0.549	0.185	0.186	0.202	0.343	0.323	0.36	0.555	0.544	0.513	0.884		0.801	0.929	0.209	0.326	0.445
NCI-H1755	0.892	0.783	0.858	1.01	0.378	0.364	0.525	0.436	0.456	0.447	0.407	0.528	0.494	1.02	1.04	1.06	1.13	0.627	0.443	0.479
NCI-H1792	0.308	0.421	0.431	0.281	0.452	0.57	0.375	0.674	0.708	0.698	0.737	0.59	0.444	0.531	0.439	0.48	0.539	0.385	0.574	0.56
NCI-H1793	0.924	0.715	0.769	0.625	0.21	0.157	0.161	0.309	0.32	0.303	0.725	0.654	0.515	1.24	0.914	0.735	0.79	0.152	0.319	0.457
NCI-H1915	0.262		0.263	0.201	0.83	0.77	0.669	0.58	0.517	0.297	0.752	0.77	0.535	1.13		1.18	0.956			
NCI-H1944	0.404	0.33	0.495	0.587	0.549	0.765	0.793	0.335	0.314	0.383	0.591	0.547	0.528	1.17	1.15	0.968	1.25	0.653	0.359	0.399
NCI-H1975	0.818		0.658	0.832	0.199	0.184	0.136	0.645	0.192	0.499	0.775	0.647	0.795	1.07	0.842	0.878	0.686			
NCI-H1993	1.24	0.804	0.96	0.831	0.874	0.621	0.617	0.57	0.525	0.44	0.925	0.721	0.663	0.597	0.747	0.695	0.758	0.697	0.576	0.653
NCI-H2085	0.805	0.529	0.731	0.684	0.409	0.422	0.386	0.461	0.473	0.439	0.974	0.86	0.858	0.95	0.8	0.828	0.806		0.446	0.702
NCI-H2087	0.614	0.217	0.465	0.38	0.148	0.179	0.142	0.217	0.18	0.139	1.34	1.35	0.817	0.991	0.75	0.608	0.408		0.224	1.1
NCI-H2126	0.914	0.73	0.821	0.818	0.915	0.777	0.853	0.357	0.356	0.349	1.05	1.09	0.934	0.722	0.737	0.626	0.585	0.901	0.353	0.836
NCI-H2347	0.602	0.52	0.56	0.507	0.28	0.48	0.236	0.43	0.38	0.394	0.656	0.531	0.633	1.01	0.952	0.967	0.848		0.418	0.663
NCI-H2405	0.896	0.717	0.851	0.756	0.75	0.757	0.71	0.574	0.425	0.536	0.803	0.617	0.634	1.16	0.783	0.856	0.887	0.507	0.501	0.754
NCI-H3122	0.675	0.371	0.616	0.644	0.104	0.0992	0.123	0.219	0.172	0.155	1.04	0.99	0.92	0.957	0.953	0.948	1.15	0.0852	0.17	0.705
PC-3 [JPC-3]	1.22	0.737	1.12	1.13	0.716	0.746	0.654	0.544	0.615	0.585	0.862	0.897	0.75	0.98	0.964	1.03	0.986	0.571	0.544	0.723
